Assays:
[1] = human free (unbound) effective therapeutic plasma concentration used to calculate multiples; cited from earlier work
[2] = tested on: human ventricular trabeculae; test: Action potential recording and pro-arrhythmic score analysis in human ventricular trabeculae (hVT);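 further: sharp microelectrode action potential recordings at 37°C in Tyrode-perfused trabeculae, 4 cumulative concentrations each applied 31 min, values averaged over last 30 APs, vehicle 0.1% DMSO as control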
[3] = 1Hz, 1.6-FOLD free ETPC (0.006µM)
[4] = 1Hz, 17-FOLD free ETPC (0.006µM)
[5] = 1Hz, 167-FOLD free ETPC (0.006µM)
[6] = 1Hz, 1667-FOLD free ETPC (0.006µM)
[7] = 2Hz, 1.6-FOLD free ETPC (0.006µM)
[8] = 2Hz, 17-FOLD free ETPC (0.006µM)
[9] = 2Hz, 167-FOLD free ETPC (0.006µM)
[10] = 2Hz, 1667-FOLD free ETPC (0.006µM)

COc1cc2nc(N(C)CCCNC(=O)C3CCCO3)nc(N)c2cc1OC (stereo not shown) [ALFUZOSIN, Alfuzosin]
Free ETPC [1]: 0.006 µM | AMAX [2, 3]: 110 | AMAX percentage change compared to vehicle control [2, 3]: 2% | APD30 [2, 3]: 163 | APD30 percentage change compared to vehicle control [2, 3]: 4% | APD50 [2, 3]: 214 | APD50 percentage change compared to vehicle control [2, 3]: 4% | APD90 [2, 3]: 287 | APD90 percentage change compared to vehicle control [2, 3]: 3% | Alternans [2, 3]: 0.33 | Alternans percentage change compared to vehicle control [2, 3]: -14% | Beat Escape [2, 3]: 0 | Beat Escape percentage change compared to vehicle control [2, 3]: 0% | EADs [2, 3]: 0 | EADs percentage change compared to vehicle control [2, 3]: 0% | ERP [2, 3]: 0.42 | ERP percentage change compared to vehicle control [2, 3]: 0% | Max Dispersion [2, 3]: 2.40 | Max Dispersion percentage change compared to vehicle control [2, 3]: 28% | RMP [2, 3]: -88 | RMP percentage change compared to vehicle control [2, 3]: 3% | Refractoriness Escape [2, 3]: 0 | Refractoriness Escape percentage change compared to vehicle control [2, 3]: 0% | STV [2, 3]: 0.30 | STV percentage change compared to vehicle control [2, 3]: 9% | Triangulation [2, 3]: 123 | Triangulation percentage change compared to vehicle control [2, 3]: -1% | AMAX [2, 4]: 110 | AMAX percentage change compared to vehicle control [2, 4]: 1% | APD30 [2, 4]: 159 | APD30 percentage change compared to vehicle control [2, 4]: 2% | APD50 [2, 4]: 209 | APD50 percentage change compared to vehicle control [2, 4]: 2% | APD90 [2, 4]: 284 | APD90 percentage change compared to vehicle control [2, 4]: 1% | Alternans [2, 4]: 0.34 | Alternans percentage change compared to vehicle control [2, 4]: -13% | Beat Escape [2, 4]: 0 | Beat Escape percentage change compared to vehicle control [2, 4]: 0% | EADs [2, 4]: 0 | EADs percentage change compared to vehicle control [2, 4]: 0% | ERP [2, 4]: 0.44 | ERP percentage change compared to vehicle control [2, 4]: 4% | Max Dispersion [2, 4]: 2.18 | Max Dispersion percentage change compared to vehicle control [2, 4]: 16% | RMP [2, 4]: -88 | RMP percentage change compared to vehicle control [2, 4]: 3% | Refractoriness Escape [2, 4]: 0 | Refractoriness Escape percentage change compared to vehicle control [2, 4]: 0% | STV [2, 4]: 0.26 | STV percentage change compared to vehicle control [2, 4]: -6% | Triangulation [2, 4]: 126 | Triangulation percentage change compared to vehicle control [2, 4]: 1% | AMAX [2, 5]: 110 | AMAX percentage change compared to vehicle control [2, 5]: 2% | APD30 [2, 5]: 161 | APD30 percentage change compared to vehicle control [2, 5]: 3% | APD50 [2, 5]: 213 | APD50 percentage change compared to vehicle control [2, 5]: 4% | APD90 [2, 5]: 291 | APD90 percentage change compared to vehicle control [2, 5]: 4% | Alternans [2, 5]: 0.45 | Alternans percentage change compared to vehicle control [2, 5]: 16% | Beat Escape [2, 5]: 0 | Beat Escape percentage change compared to vehicle control [2, 5]: 0% | EADs [2, 5]: 0 | EADs percentage change compared to vehicle control [2, 5]: 0% | ERP [2, 5]: 0.44 | ERP percentage change compared to vehicle control [2, 5]: 4% | Max Dispersion [2, 5]: 2.43 | Max Dispersion percentage change compared to vehicle control [2, 5]: 29% | RMP [2, 5]: -89 | RMP percentage change compared to vehicle control [2, 5]: 4% | Refractoriness Escape [2, 5]: 0 | Refractoriness Escape percentage change compared to vehicle control [2, 5]: 0% | STV [2, 5]: 0.29 | STV percentage change compared to vehicle control [2, 5]: 7% | Triangulation [2, 5]: 130 | Triangulation percentage change compared to vehicle control [2, 5]: 5% | AMAX [2, 6]: 109 | AMAX percentage change compared to vehicle control [2, 6]: 1% | APD30 [2, 6]: 162 | APD30 percentage change compared to vehicle control [2, 6]: 4% | APD50 [2, 6]: 222 | APD50 percentage change compared to vehicle control [2, 6]: 9% | APD90 [2, 6]: 319 | APD90 percentage change compared to vehicle control [2, 6]: 14% | Alternans [2, 6]: 0.72 | Alternans percentage change compared to vehicle control [2, 6]: 86% | Beat Escape [2, 6]: 0 | Beat Escape percentage change compared to vehicle control [2, 6]: 0% | EADs [2, 6]: 0 | EADs percentage change compared to vehicle control [2, 6]: 0% | ERP [2, 6]: 0.47 | ERP percentage change compared to vehicle control [2, 6]: 12% | Max Dispersion [2, 6]: 3.05 | Max Dispersion percentage change compared to vehicle control [2, 6]: 63% | RMP [2, 6]: -88 | RMP percentage change compared to vehicle control [2, 6]: 4% | Refractoriness Escape [2, 6]: 0 | Refractoriness Escape percentage change compared to vehicle control [2, 6]: 0% | STV [2, 6]: 0.46 | STV percentage change compared to vehicle control [2, 6]: 75% | Triangulation [2, 6]: 158 | Triangulation percentage change compared to vehicle control [2, 6]: 28% | AMAX [2, 7]: 109 | AMAX percentage change compared to vehicle control [2, 7]: 1% | APD30 [2, 7]: 120 | APD30 percentage change compared to vehicle control [2, 7]: 2% | APD50 [2, 7]: 163 | APD50 percentage change compared to vehicle control [2, 7]: 3% | APD90 [2, 7]: 234 | APD90 percentage change compared to vehicle control [2, 7]: 2% | Alternans [2, 7]: 0.92 | Alternans percentage change compared to vehicle control [2, 7]: 6% | Beat Escape [2, 7]: 0 | Beat Escape percentage change compared to vehicle control [2, 7]: 0% | EADs [2, 7]: 0 | EADs percentage change compared to vehicle control [2, 7]: 0% | ERP [2, 7]: 0.45 | ERP percentage change compared to vehicle control [2, 7]: 1% | Max Dispersion [2, 7]: 3.95 | Max Dispersion percentage change compared to vehicle control [2, 7]: 12% | RMP [2, 7]: -87 | RMP percentage change compared to vehicle control [2, 7]: 2% | Refractoriness Escape [2, 7]: 0 | Refractoriness Escape percentage change compared to vehicle control [2, 7]: 0% | STV [2, 7]: 0.64 | Triangulation [2, 7]: 115 | Triangulation percentage change compared to vehicle control [2, 7]: 1% | AMAX [2, 8]: 110 | AMAX percentage change compared to vehicle control [2, 8]: 2% | APD30 [2, 8]: 116 | APD30 percentage change compared to vehicle control [2, 8]: -1% | APD50 [2, 8]: 160 | APD50 percentage change compared to vehicle control [2, 8]: 1% | APD90 [2, 8]: 233 | APD90 percentage change compared to vehicle control [2, 8]: 1% | Alternans [2, 8]: 0.99 | Alternans percentage change compared to vehicle control [2, 8]: 14% | Beat Escape [2, 8]: 0 | Beat Escape percentage change compared to vehicle control [2, 8]: 0% | EADs [2, 8]: 0 | EADs percentage change compared to vehicle control [2, 8]: 0% | ERP [2, 8]: 0.47 | ERP percentage change compared to vehicle control [2, 8]: 4% | Max Dispersion [2, 8]: 3.93 | Max Dispersion percentage change compared to vehicle control [2, 8]: 11% | RMP [2, 8]: -88 | RMP percentage change compared to vehicle control [2, 8]: 4% | Refractoriness Escape [2, 8]: 0 | Refractoriness Escape percentage change compared to vehicle control [2, 8]: 0% | STV [2, 8]: 0.66 | Triangulation [2, 8]: 118 | Triangulation percentage change compared to vehicle control [2, 8]: 3% | AMAX [2, 9]: 110 | AMAX percentage change compared to vehicle control [2, 9]: 2% | APD30 [2, 9]: 115 | APD30 percentage change compared to vehicle control [2, 9]: -1% | APD50 [2, 9]: 161 | APD50 percentage change compared to vehicle control [2, 9]: 2% | APD90 [2, 9]: 238 | APD90 percentage change compared to vehicle control [2, 9]: 3% | Alternans [2, 9]: 0.83 | Alternans percentage change compared to vehicle control [2, 9]: -4% | Beat Escape [2, 9]: 0 | Beat Escape percentage change compared to vehicle control [2, 9]: 0% | EADs [2, 9]: 0 | EADs percentage change compared to vehicle control [2, 9]: 0% | ERP [2, 9]: 0.48 | ERP percentage change compared to vehicle control [2, 9]: 7% | Max Dispersion [2, 9]: 2.88 | Max Dispersion percentage change compared to vehicle control [2, 9]: -18% | RMP [2, 9]: -88 | RMP percentage change compared to vehicle control [2, 9]: 3% | Refractoriness Escape [2, 9]: 0 | Refractoriness Escape percentage change compared to vehicle control [2, 9]: 0% | STV [2, 9]: 0.63 | Triangulation [2, 9]: 123 | Triangulation percentage change compared to vehicle control [2, 9]: 8% | AMAX [2, 10]: 108 | AMAX percentage change compared to vehicle control [2, 10]: 0% | APD30 [2, 10]: 115 | APD30 percentage change compared to vehicle control [2, 10]: -1% | APD50 [2, 10]: 165 | APD50 percentage change compared to vehicle control [2, 10]: 5% | APD90 [2, 10]: 258 | APD90 percentage change compared to vehicle control [2, 10]: 12% | Alternans [2, 10]: 0.78 | Alternans percentage change compared to vehicle control [2, 10]: -10% | Beat Escape [2, 10]: 0 | Beat Escape percentage change compared to vehicle control [2, 10]: 0% | EADs [2, 10]: 0 | EADs percentage change compared to vehicle control [2, 10]: 0% | ERP [2, 10]: 0.50 | ERP percentage change compared to vehicle control [2, 10]: 11% | Max Dispersion [2, 10]: 2.72 | Max Dispersion percentage change compared to vehicle control [2, 10]: -23% | RMP [2, 10]: -87 | RMP percentage change compared to vehicle control [2, 10]: 2% | Refractoriness Escape [2, 10]: 0 | Refractoriness Escape percentage change compared to vehicle control [2, 10]: 0% | STV [2, 10]: 0.55 | Triangulation [2, 10]: 142 | Triangulation percentage change compared to vehicle control [2, 10]: 26%

Reference: PMC5760531, “Action Potential Recording and Pro-arrhythmia Risk Analysis in Human Ventricular Trabeculae” (Frontiers in Physiology, 2018)
